Results reported in PMC6984391, “Anion carriers as potential treatments for cystic fibrosis: transport in cystic fibrosis cells, and additivity to channel-targeting drugs” (Chemical Science, 2019).

Test: Cl-/NO3- exchange in LUVs with preincorporated anionophore (lucigenin method)
Assay type: biochemical
Conditions: transporter preincorporated in LUVs (70% POPC + 30% cholesterol), 25 mM NaCl gradient, 225 mM NaNO3; new compound or new data
Method: The four new anionophores were tested for affinity to Cl^– (in CHCl3 and DMSO, with tetra-alkylammonium counter-ions), and for anion transport (Cl^–/NO3^– exchange) when preloaded into 200 nm large unilamellar vesicles (LUVs). The latter assay was performed using the well-established “lucigenin method”[30] in which Cl^– influx into vesicles is followed through quenching of fluorescence from the halide-sensitive fluorophore lucigenin. The results are listed in Table 1, accompanied by corresponding values for the previously-reported compounds where available. […] In this test, anion transport by anionophores delivered externally to LUVs is compared with their action when preloaded into LUV membranes.[24],[29],[32]
3. Transport studies in vesicles
Transport measurements in vesicles with preincorporated anionophores.
1-Palmitoyl-2-oleoyl-sn-glycero-3-phosphocholine (POPC) was obtained from Avanti® Polar Lipids, Inc. An extrusion apparatus and 200 nm polycarbonate membranes were obtained from GC Technology Ltd. All lipid and receptor solutions were prepared using chloroform that had been deacidified by passage through a flash chromatography column containing basic alumina, and all aqueous solutions were prepared using deionised water that had been passed through a Millipore filtration system.
POPC and cholesterol solutions (~10 mM) in deacidified chloroform were combined with a solution of transporter in methanol or deacidified chloroform in a 5 mL round bottomed flask.
Volumes of the aliquots were calculated from the concentrations of the lipid solution to obtain a POPC to cholesterol ratio of 7:3 (for instance by combining 4.20 µmol POPC and 1.80 µmol cholesterol). The ratio of anionophore to lipid (POPC + cholesterol) was either 1:2500 or 1:25000, as specified in the experiments. The solvents from the lipid/receptor mixture were evaporated under a stream of N2 and the lipid film was dried under high vacuum for 1 h. The residue was hydrated with 500 µL of an aqueous solution of 10,10'-dimethyl-9,9'-biacridinium nitrate (lucigenin, 0.8 mM) and NaNO3 (225 mM), sonicated for 30 s and stirred for 1 h to give heterogeneous vesicles. Multilamellar vesicles were disrupted by 10 freeze-thaw cycles and then the solution was diluted to 1 mL (by adding 0.5 mL of 225 mM NaNO3) and carefully extruded (29 times) through a polycarbonate membrane (200 nm pore size) to give a uniform distribution of LUVs with an average diameter of ~200 nm.2 The external lucigenin was removed by passing the solution though a size exclusion column (containing ~2 g Sephadex 50G, eluted with 225 mM NaNO3). The collected vesicles were further diluted with NaNO3 solution (225 mM) to obtain a vesicle solution with 0.4 mM lipid concentration. 3.00 mL of this vesicle solution was placed in a quartz cuvette with a small stir bar and the fluorescence intensity (excitation at 450 nm, emission at 535 nm) was measured over time at 25 °C, using a PerkinElmer LS45 fluorescence spectrometer. 75 µL of aqueous NaCl (1.0 M in 225 mM NaNO3, to give an overall external chloride concentration of 25 mM) was added ~30 seconds after the start of the experiment and the fluorescence intensity was measured for another 14 […]
Fluorescence data were collected for at least four replicate experiments. The plateau (before addition of chloride) and the vertical drop (the first 1-2.5 seconds after chloride addition, due to quenching of external lucigenin) were removed. Next the data were normalized: all fluorescence values (F) were divided by the fluorescence value before addition of chloride (F0).
Initial rates (I) were obtained from fluorescence -decay curves (0-500 s) by fitting their inverse (F0/F) to a double exponential decay function:
Differentiating this gives F = abe−bt + cde−dt […]
and substituting t = 0 gives the following equation for initial rate: I = ab + cd Specific initial rates [I] were obtained by dividing the initial rates by the anionophore to lipid […]

| SMILES | Specific initial rate [I] |
| --- | --- |
| COCCOCCOC(=O)[C@]12CC[C@@H](NC(=O)Nc3ccc(C(F)(F)F)cc3)C[C@@H]1C[C@@H](NC(=O)Nc1ccc(C(F)(F)F)cc1)CC2 [Compound 9] | 9 s^–1 |
| COCCOCCOC(=O)[C@]12CC[C@@H](NC(=O)Nc3cc(C(F)(F)F)cc(C(F)(F)F)c3)C[C@@H]1C[C@@H](NC(=O)Nc1cc(C(F)(F)F)cc(C(F)(F)F)c1)CC2 [Compound 10] | 19 s^–1 |
| CCOC(=O)[C@]12CC[C@@H](NC(=S)Nc3ccc([N+](=O)[O-])cc3)C[C@@H]1C[C@@H](NC(=S)Nc1ccc([N+](=O)[O-])cc1)CC2 [Compound 12] | 310 s^–1 |
| CCCCCCCCOC(=O)[C@]12CC[C@@H](NC(=S)Nc3ccc([N+](=O)[O-])cc3)C[C@@H]1C[C@@H](NC(=S)Nc1ccc([N+](=O)[O-])cc1)CC2 [Compound 13] | 370 s^–1 |
| FC(F)(F)c1ccc(NC(=S)NCCN(CCNC(=S)Nc2ccc(C(F)(F)F)cc2)CCNC(=S)Nc2ccc(C(F)(F)F)cc2)cc1 [Compound 18] | 36 ^b s^–1 |
| FC(F)(F)c1cc(NC(=S)NCCN(CCNC(=S)Nc2cc(C(F)(F)F)cc(C(F)(F)F)c2)CCNC(=S)Nc2cc(C(F)(F)F)cc(C(F)(F)F)c2)cc(C(F)(F)F)c1 [Compound 19] | 590 ^b s^–1 |
